In patent US20250195393A1, “COSMETIC COMPOSITION COMPRISING SKIN ACTIVE AGENT” (priority 2023, published 2025):

Test: Hansen Solubility Parameters (D, P, H) and distance Ra of solvents (b)
Settings: not given
Excerpt: The oil phase of the emulsion includes the hydrophobic polymer of (a) dissolved in one or more solvents capable of solubilizing the hydrophobic polymer. The one or more solvent may include one or more solvents used to generate or solubilize the hydrophobic polymer, e.g., 2,2,4-trimethyl-1,3-pentanediol-monoisobutyrate. The one or more solvents may be a single solvent or a plurality of solvents.
[formula] • wherein • D1 is 16.8 MPa^0.5, • P1 is 4.8 MPa^0.5, and • H1 is 13.0 MPa^0.5.
In a preferred embodiment, the one or more solvents have a dispersion component (D), a polar component (P), a hydrogen bonding component (H), and a distance (Ra) of less than or equal to 9.9 MPa^0.5 per Hansen Solubility Parameters, wherein the distance (Ra) is defined by formula (I):
[formula] • wherein • D1 is 16.4 MPa^0.5, • P1 is 5.0 MPa^0.5, and • H1 is 11.7 MPa^0.5.
The solvent may be an oil. The term “oil” is intended to mean a non-aqueous compound, non-miscible in water, and liquid at 25° C. and atmospheric pressure (760 mmHg; 1.013×10^5 Pa). […] The solvents may include acetone. The solvents may include oleic acid. The solvents may include an oleic acid containing oil (such as a vegetable oil).

| Ra (Allowable Range) [MPa^0.5] | Ra (Preferred Range) [MPa^0.5] | Compound |
| --- | --- | --- |
| 7.81 | 8.67 | CCO [Ethanol] |
| 7.02 | 5.54 | CC(C)O [Isopropyl Alcohol] |
| 10.70 | 9.41 | CCCCCCCCCCCCCC(=O)OC(C)C [Isopropyl Myristate] |
| 7.27 | 5.98 | CCCCCCCC/C=C\CCCCCCCC(=O)O [Oleic Acid] |
| 2.55 | 3.88 | OCCOc1ccccc1 [Phenoxyethanol] |

| Compound | Ra (Allowable Range) [MPa^0.5] | Ra (Preferred Range) [MPa^0.5] |
| --- | --- | --- |
| CCCCCCCCCCC(CO)CCCCCCCC (centres unmarked) [Octyldodecanol] | 6.33 | 5.17 |

Same assay, conditions: distance per formula (I) with D1 16.4, P1 5.0, H1 11.7; preferred <= 9.9

| Compound | Ra (Preferred Range) [MPa^0.5] |
| --- | --- |
| CC(C)=O [Acetone] | 7.38 |

Same assay, conditions: distance per formula (I) with D1 16.8, P1 4.8, H1 13.0; allowable <= 13.4

| Compound | Ra (Allowable Range) [MPa^0.5] |
| --- | --- |
| CC(C)=O [Acetone] | 8.61 |

Test: not given
Settings: Hansen Solubility Parameters; cited from earlier work

| Compound | D (dispersion component) [MPa^0.5] | H (hydrogen bonding component) [MPa^0.5] | P (polar component) [MPa^0.5] |
| --- | --- | --- | --- |
| CC(C)=O [Acetone] | 15.5 | 7 | 10.4 |
| CCO [Ethanol] | 15.8 | 19.4 | 8.8 |
| CC(C)O [Isopropyl Alcohol] | 15.8 | 6.4 | 6.1 |
| CCCCCCCCCCCCCC(=O)OC(C)C [Isopropyl Myristate] | 15.9 | 2.8 | 2.1 |
| CCCCCCCCCCC(CO)CCCCCCCC (centres unmarked) [Octyldodecanol] | 16.1 | 7.4 | 2.2 |
| CCCCCCCC/C=C\CCCCCCCC(=O)O [Oleic Acid] | 16 | 6.2 | 2.8 |
